From article PMC3154276, “The Effect of the Potential PhoQ Histidine Kinase Inhibitors on Shigella flexneri Virulence” (PLoS ONE, 2011)

Key:
SF-PhoQc = target: T1, SF-PhoQc (Shigella flexneri, UniProt Q83RR1); test: Luminescent Kinase Assay of SF-PhoQc; format: biochemical, S. flexneri 2a 301
T1 construct: The amplified DNA segment encodes PhoQ HK amino acids 251–486; made in house; host or cells: E. coli JM109
Method: Luminescent Kinase Assay was used to confirm the effects of compounds 1, 2, 3 and 4 on the enzymatic activity of SF-PhoQc. In the Luminescent Kinase Assay, the putative kinase activity of SF-PhoQc protein was measured by quantifying the amount of ATP that remained in solution after the reaction. […] Next, the effect of each compound on the enzymatic activity of SF-PhoQc was measured.
In the Luminescent Kinase assay, reactions were performed in solid black, flat-bottomed 96-well plates. To determine the IC50 of potential PhoQ HK inhibitors, each compound underwent 2-fold serial dilutions with DMSO (0.1%) and was added into the reaction mixture. The final reaction mixture contained 4 µg of purified SF-PhoQc, 40 mmol/L Tris-Cl (pH 7.5), 16 mmol/L MgCl2, 0.8 mmol/L DTT and different concentration of 100, 50, 25, 12.5, 6.25 or 3.125 µmol/L compound, respectively. After incubation at 30°C for 25 minutes, 3 µmol/L ATP was added, and the reaction was incubated at 30°C for another 25 minutes. Next, an equal volume of Luminescent Kinase Reagent was added to each well, mixed and kept at room temperature for 10 minutes before recording the luminescence reading on a Fluoroskan Ascent FL machine (Thermo Scientific, USA). The rate of phosphorylation inhibition by a compound was calculated with the following formula: [drawing 2]
The IC50 value of each compound was determined using the Origin 7.0 software (OriginLab, Northampton, USA).

S. flexneri Sf9380 [1] = test: Gentamicin protection assay, intracellular growth and spreading to adjacent cell of Sf9380; format: cell-based; settings: for intracellular growth and spreading to adjacent cell of Sf9380 (bacteria recovered / inoculated): further incubated 290 min, untreated Sf9380 0.12
Method: (§1) The growth curve of Sf9380 treated with or without potential PhoQ inhibitors at concentration 200 µmol/L were tested. […] The gentamicin protection assay was used as a cellular model to evaluate the inhibitory effect of the four potential PhoQ inhibitors. The bacteria were treated with each of the four potential PhoQ inhibitors in a serial dilution and grown for 8 hours. Next, the bacteria were inoculated and incubated with HeLa cells for 60 min prior to the addition of gentamicin to kill extracellular bacteria. For testing intracellular growth and spreading to adjacent cell, cells were further incubated for 290 min [9]. The results of the assays were expressed as the number of bacteria recovered from gentamicin-treated cells divided by the number of inoculated bacteria added to the cell. After lysates of HeLa cells were plated, the number of CFU that formed on LB agar were counted.
(§2) Figure 6 The effects of potential PhoQ inhibitors on virulence of Shigella. […] The bacteria pre-treated with potential PhoQ inhibitor were added to HeLa cells at a multiplicity of infection of 100. Then gentamicin was added to kill extracellular bacteria and cell lysates were plated onto LB plates, and the colonies were counted. The results of the assays were expressed as the number of bacteria recovered from gentamicin-treated cells divided by the number of inoculated bacteria added to the cell. S. flexneri Sf9380 (treated without DMSO), a clinical strain with strong virulence, served as the positive control for the cell invasion assay; E. coli ATCC 25922 (treated without DMSO), an avirulent strain, served as the negative control for the cell invasion assay; bacteria treated with 0.1% DMSO (the solvent of the potential PhoQ inhibitor) also served as a control for the cell invasion assay. Values are means ± standard deviations from 6 independent wells. *p<0.01 vs. Sf9380. (A) The effects of potential PhoQ inhibitors on cell invasion of S. flexneri Sf9380 (B) The effects of potential PhoQ inhibitors on intracellular growth S. flexneri Sf9380. (C) The effects of potential PhoQ inhibitors on cell invasion of S. flexneri 2a 301 phoQ/phoP knock-out mutant.
(§3) Bacterial ability to invade HeLa cells was tested with a gentamicin protection assay. HeLa cells were grown in six-well tissue culture plates to semi-confluent monolayers (DMEM, 10% FCS, 5% CO2). Sf9380 or Sf301 ΔphoQ/phoP was treated with potential PhoQ inhibitors for 8 hours in LB at 37°C (final concentrations of 100,50,25,12.5 or 6.25 µmol/L) prior to infection. The bacteria pre-treated with potential PhoQ inhibitor without washing, were added to semi-confluent HeLa cells at a multiplicity of infection of 100, at the same time the bacteria were diluted and plated onto LB agar plates. The CFUs were counted as initial bacterial number before added into HeLa cells. Then the plates were centrifuged at 900×g for 5 minutes. After incubating at 37°C for 60 minutes (For testing intracellular growth and spreading to adjacent cell, cells were further incubated for 290 min [9].), the cells were washed three times with PBS, and gentamicin was added to the medium to a final concentration of 10 µg/ml for 20 minutes at 37°C. After the incubation, the HeLa cells in each well were lysed in 1 ml of PBS containing 0.1% Triton X-100 for 10 minutes at room temperature. The lysates were diluted and plated onto LB agar plates in triplicate. Colonies grown on LB plates were counted. The results of the assays were expressed as the number of bacteria recovered from gentamicin-treated cells divided by the number of inoculated bacteria added to the cell. The cells were inoculated with untreated Sf9380 or Sf301 ΔphoQ/phoP (treated without DMSO) as a positive control and E. coli ATCC 25922, an avirulent strain treated without DMSO, as a negative control. […]

S. flexneri 2a 301 = test: Gentamicin protection assay, HeLa cell invasion by Sf301; format: cell-based; settings: bacteria treated 8 h, Figure S4
Method: Supplementary file pone.0023100.s004.tif: Figure S4 The effects of potential PhoQ inhibitors on cell invasion of Shigella Sf 301. […] The bacteria were treated with each of the four potential PhoQ inhibitors grown for 8 h. Then the bacteria were inoculated with HeLa cells for 60 minutes prior to the addition of gentamicin to kill extracellular bacteria. After the incubation, the HeLa cells in each well were lysed in 1 ml of PBS containing 0.1% Triton X-100. The lysates were diluted and plated onto LB agar plates in triplicate. Colonies grown on LB plates were counted. The results of the assays were expressed as the number of bacteria recovered from gentamicin-treated cells divided by the number of inoculated bacteria added to the cell. Values are means ± standard deviations from 6 independent wells. *p<0.01 vs. Sf301. […] (TIF) Click here for additional data file.

S. flexneri Sf9380 [2] = test: Gentamicin protection assay, HeLa cell invasion by Sf9380; format: cell-based; settings: for invasion of HeLa cells by Sf9380 (bacteria recovered / inoculated): bacteria pre-treated 8 hours, untreated Sf9380 5.87×10^−2
Method: as §1, §2, §3

T1 sequence (Q83RR1 251-486): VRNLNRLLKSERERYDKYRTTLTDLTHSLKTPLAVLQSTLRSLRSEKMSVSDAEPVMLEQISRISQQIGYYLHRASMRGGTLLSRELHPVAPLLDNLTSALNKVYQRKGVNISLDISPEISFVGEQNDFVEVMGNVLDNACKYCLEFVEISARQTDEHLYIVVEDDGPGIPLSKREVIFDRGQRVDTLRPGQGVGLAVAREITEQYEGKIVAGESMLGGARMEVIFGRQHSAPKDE

SMILES | IC50 (SF-PhoQc) [µM] | times lower than untreated Sf9380, intracellular growth (S. flexneri Sf9380 [1]; 100 µmo/L) [times] | intracellular growth and spreading to adjacent cell of Sf9380 (bacteria recovered / inoculated) (S. flexneri Sf9380 [1]; 100 µmo/L) | effect on HeLa cell invasion ability of Sf301 (S. flexneri 2a 301) | invasion of HeLa cells by Sf9380 (bacteria recovered / inoculated) (S. flexneri Sf9380 [2]; 100 µmo/L) | effect on invasion of HeLa cells by Sf9380 (S. flexneri Sf9380 [2]; concentrations lower than 100 µmo/L) | times lower than untreated Sf9380, intracellular growth (S. flexneri Sf9380 [1]; 25 µmo/L) [times] | intracellular growth and spreading to adjacent cell of Sf9380 (bacteria recovered / inoculated) (S. flexneri Sf9380 [1]; 25 µmo/L) | times lower invasion than the control (S. flexneri Sf9380 [2]; 25 µmo/L, HeLa cells) [times] | effect on invasion of HeLa cells by Sf9380 (S. flexneri Sf9380 [2]; concentrations lower than 25 µmo/L) | effect on cell intracellular growth of Sf9380 (S. flexneri Sf9380 [1]; 100 µmo/L) | effect on invasion of HeLa cells by Sf9380 (S. flexneri Sf9380 [2]; 100 µmo/L) | times lower than untreated Sf9380, intracellular growth (S. flexneri Sf9380 [1]; 12.5 µmo/L) [times] | intracellular growth and spreading to adjacent cell of Sf9380 (bacteria recovered / inoculated) (S. flexneri Sf9380 [1]; 12.5 µmo/L) | times lower invasion than untreated Sf9380 (S. flexneri Sf9380 [2]; 12.5 µmo/L, HeLa cells) [times] | invasion of HeLa cells by Sf9380 (bacteria recovered / inoculated) (S. flexneri Sf9380 [2]; 12.5 µmo/L) | effect on invasion of HeLa cells by Sf9380 (S. flexneri Sf9380 [2]; concentrations lower than 12.5 µmo/L)
O=C(O)c1ccc(Cl)c(-c2ccc(/C=N/NC(=O)c3ccc(Br)cc3)o2)c1 [Compound 3] | 7.99 ± 5.61 | 2.6 | 0.046 | can inhibit | 1.95×10^−2 | no obvious effects |  |  |  |  |  |  |  |  |  |  | 
CCOc1ccccc1-c1cc(C(=O)N/N=C/c2ccc(OCc3ccccc3)c(OC)c2)c2ccccc2n1 [Compound 2] | 48.9 ± 14.7 |  |  | can inhibit |  |  | 3.3 | 0.036 | 16.3 | no obvious effects |  |  |  |  |  |  | 
O=C(O)c1cc(-c2ccc(-c3ccccc3Cl)o2)nc2ccc3ccccc3c12 [Compound 4] | 27.2 ± 15.4 |  | 0.12 | no effect |  |  |  |  |  |  | no obvious effect | no effect |  |  |  |  | 
O=C(Nc1ccc(C2(c3cccc(NC(=O)c4cccc5ccccc45)c3)c3ccccc3C(=O)c3ccccc32)cc1)c1ccc2ccccc2c1 [Compound 1] | 69.37 ± 0.56 |  |  | can inhibit |  |  |  |  |  |  |  |  | 1.96 | 0.061 | 4.3 | 1.36×10^−2 | no obvious effects
